Data taken from US20050245399A1, “Pyrazole derivatives as herbicidal compositions containing them” (ISHIHARA SANGYO KAISHA, LTD., priority 2004, published 2005).

Legend:
Format in all cases: in vivo
[1] = test system: barnyardgrass (Echinochloa crus-galli L.), ECHCG; assay: Test Example 2 post-emergence (foliage treatment) herbicidal activity, ECHCG; conditions: 63 g a.i./ha
Summary of the method: (§1)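 Visual growth-control score (0 = untreated, 100 = complete kill) taken 20th-23rd day after a foliar spray. Seedlings were grown in upland field soil and treated at leaf stage: barnyardgrass 1.1-2.1, crabgrass 1.0-2.0, redroot pigweed 0.1-1.5, rice 1.0-2. Spray volume was 500 L/ha water with 0.1% (v/v) agricultural spreader.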

[2] = test system: rice (Oryza sativa L.), ORYSA; assay: Test Example 2 post-emergence (foliage treatment) herbicidal activity, ORYSA; conditions: 63 g a.i./ha
Summary of the method: as §1

[3] = test system: redroot pigweed (Amaranthus retroflexus L.), AMARE; assay: Test Example 2 post-emergence (foliage treatment) herbicidal activity, AMARE; conditions: 63 g a.i./ha
Text: Upland field soil was put into a 1/170,000 ha pot, and seeds of various plants were sown. Then, when the plants reached predetermined leaf stages {1. barnyardgrass (Echinochloa crus-galli L.), ECHCG: 1.1-2.1 leaf stage, 2. crabgrass (Digitaria sanguinalis L.), DIGSA: 1.0-2.0 leaf stage, 3. green foxtail (Setaria viridis L.), SETVI: 1.0-2.2 leaf stage, 4. redroot pigweed (Amaranthus retroflexus L.), AMARE: 0.1-1.5 leaf stage, 5. prickly sida (Sida spinosa L.), SIDSP: 0.1-0.6 leaf stage, 6. velvetleaf (Abutilon theophrasti), ABUTH: 0.1-0.6 leaf stage, 7. common cocklebur (Xanthium strumarium L.), XANST: 0.1 leaf stage, 8. rice (Oryza sativa L.), ORYSA; 1.0-2 leaf stage, 9. wheat (Triticum aestivum L.), TRZAX: 2.3-3.5 leaf stage, 10. corn (Zea mays L.), ZEAMXN 2.1-2.6 leaf stage, 11. soybean (Glycine max Merr.), GLXMA: primary leaf stage}, a wettable powder or emulsifiable concentrate having the compound of the present invention formulated in accordance with a usual formulation method, was weighed so that the active ingredient would be a predetermined amount, and diluted with water in an amount of 500 L/ha. To the diluted solution, 0.1% (v/v) of an agricultural spreader was added. The herbicide adjusted was applied by a small size sprayer for foliage treatment. On the 20th to 23rd day after the application of the herbicide, the growth of the respective plants was visually observed, and the herbicidal effects were evaluated by growth controlling degrees (%) ranging from 0 (equivalent to the untreated control) to 100 (complete kill), whereby the results shown in Table 5, were obtained. Compound Nos. in Table 5 correspond to Compound Nos. in Table 1 and 2 given hereinbefore.

[4] = test system: green foxtail (Setaria viridis L.): SETVI; assay: Test Example 1 pre-emergence herbicidal activity, SETVI; conditions: Rate 63 g a.i./ha, visually observed 20th to 23rd day after application
Summary of the method: (§2)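 Pre-emergence soil spray: wettable powder or emulsifiable concentrate diluted in water (500 L/ha) applied one day after sowing in upland field soil. Visual growth-control rating (%) on days 20–23, 0 = untreated control, 100 = complete kill.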

[5] = test system: soybean (Glycine max Merr.): GLXMA; assay: Test Example 1 pre-emergence herbicidal activity, GLXMA; conditions: Rate 63 g a.i./ha, visually observed 20th to 23rd day after application
Summary of the method: as §2

[6] = test system: velvetleaf (Abutilon theophrasti), ABUTH; assay: Test Example 2 post-emergence (foliage treatment) herbicidal activity, ABUTH; conditions: 63 g a.i./ha
Summary of the method: (§3)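 Foliar spray of formulated compound (500 L/ha dilution water, 0.1% v/v spreader) onto young potted plants at defined leaf stages. Scored 0-100% by visual inspection 20-23 d post-spray.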

[7] = test system: crabgrass (Digitaria sanguinalis L.): DIGSA; assay: Test Example 1 pre-emergence herbicidal activity, DIGSA; conditions: Rate 63 g a.i./ha, visually observed 20th to 23rd day after application
Summary of the method: as §2

[8] = test system: soybean (Glycine max Merr.), GLXMA; assay: Test Example 2 post-emergence (foliage treatment) herbicidal activity, GLXMA; conditions: 63 g a.i./ha
Summary of the method: as §3

[9] = test system: corn (Zea mays L.), ZEAMX; assay: Test Example 2 post-emergence (foliage treatment) herbicidal activity, ZEAMX; conditions: 63 g a.i./ha
Summary of the method: as §3

[10] = test system: prickly sida (Sida spinosa L.), SIDSP; assay: Test Example 2 post-emergence (foliage treatment) herbicidal activity, SIDSP; conditions: 63 g a.i./ha
Summary of the method: as §3

[11] = test system: prickly sida (Sida spinosa L.): SEDSP; assay: Test Example 1 pre-emergence herbicidal activity, SIDSP; conditions: Rate 63 g a.i./ha, visually observed 20th to 23rd day after application
Summary of the method: as §2

[12] = test system: barnyardgrass (Echinochloa crus-galli L.): ECHCG; assay: Test Example 1 pre-emergence herbicidal activity, ECHCG; conditions: Rate 63 g a.i./ha, visually observed 20th to 23rd day after application
Summary of the method: as §2

[13] = test system: wheat (Triticum aestivum L.), TRZAX; assay: Test Example 2 post-emergence (foliage treatment) herbicidal activity, TRZAX; conditions: 63 g a.i./ha
Summary of the method: as §3

[14] = test system: redroot pigweed (Amaranthus retroflexus L.): AMARE; assay: Test Example 1 pre-emergence herbicidal activity, AMARE; conditions: Rate 63 g a.i./ha, visually observed 20th to 23rd day after application
Summary of the method: as §2

[15] = test system: wheat (Triticum aestivum L.): TRZAX; assay: Test Example 1 pre-emergence herbicidal activity, TRZAX; conditions: Rate 63 g a.i./ha, visually observed 20th to 23rd day after application
Summary of the method: as §2

[16] = test system: corn (Zea mays L.): ZEAMX; assay: Test Example 1 pre-emergence herbicidal activity, ZEAMX; conditions: Rate 63 g a.i./ha, visually observed 20th to 23rd day after application
Summary of the method: as §2

[17] = test system: crabgrass (Digitaria sanguinalis L.), DIGSA; assay: Test Example 2 post-emergence (foliage treatment) herbicidal activity, DIGSA; conditions: 63 g a.i./ha
Summary of the method: as §1

[18] = test system: rice (Oryza sativa L.): ORYSA; assay: Test Example 1 pre-emergence herbicidal activity, ORYSA; conditions: Rate 63 g a.i./ha, visually observed 20th to 23rd day after application
Summary of the method: as §2

[19] = test system: velvetleaf (Abutilon theophrasti): ABUTH; assay: Test Example 1 pre-emergence herbicidal activity, ABUTH; conditions: Rate 63 g a.i./ha, visually observed 20th to 23rd day after application
Summary of the method: as §2

[20] = test system: green foxtail (Setaria viridis L.), SETVI; assay: Test Example 2 post-emergence (foliage treatment) herbicidal activity, SETVI; conditions: 63 g a.i./ha
Summary of the method: as §3

| Compound | growth controlling degree, ECHCO [1] [%] | growth controlling degree, ORYSA [2] [%] | growth controlling degree, AMARE [3] [%] | Pre-emergence Herbicidal Activity SETVI (growth controlling degree) [4] [%] | Pre-emergence Herbicidal Activity GLXMA (growth controlling degree) [5] [%] | growth controlling degree, ABUTH [6] [%] | Pre-emergence Herbicidal Activity DIGSP (growth controlling degree) [7] [%] | growth controlling degree, GLXMA [8] [%] | growth controlling degree, ZEAMX [9] [%] | growth controlling degree, SIDSP [10] [%] | Pre-emergence Herbicidal Activity SIDSP (growth controlling degree) [11] [%] | Pre-emergence Herbicidal Activity ECHCG (growth controlling degree) [12] [%] | growth controlling degree, TRZAX [13] [%] | Pre-emergence Herbicidal Activity AMARE (growth controlling degree) [14] [%] | Pre-emergence Herbicidal Activity TRZAX (growth controlling degree) [15] [%] | Pre-emergence Herbicidal Activity ZEAMX (growth controlling degree) [16] [%] | growth controlling degree, DIGSP [17] [%] | Pre-emergence Herbicidal Activity ORYSA (growth controlling degree) [18] [%] | Pre-emergence Herbicidal Activity ABUTH (growth controlling degree) [19] [%] | growth controlling degree, SETVI [20] [%] |
| --- | --- | --- | --- | --- | --- | --- | --- | --- | --- | --- | --- | --- | --- | --- | --- | --- | --- | --- | --- | --- |
| COc1c(Cl)cc(F)c(-c2nn(C)c(OC(F)F)c2Cl)c1NC(=O)CCc1ccccc1C [Compound 1-37] | 98 | 90 | 100 | 80 | 0 | 100 | 100 | 98 | 70 | 100 | 95 | 60 | 50 | 100 | 30 | 0 | 80 | 20 | 40 | – |
| COc1c(Cl)cc(F)c(-c2nn(C)c(OC(F)F)c2Cl)c1NCCc1cccc(C)c1 [Compound 1-50] | 100 | 95 | 100 | 100 | 10 | 100 | 100 | 95 | 80 | 100 | 100 | 70 | 70 | 100 | 30 | 10 | 90 | 20 | 100 | – |
| COc1c(Cl)cc(F)c(-c2nn(C)c(OC(F)F)c2Cl)c1NC(=O)C1CC1 [Compound 1-264] | 80 | 80 | 100 | 60 | 0 | 100 | 100 | 70 | 50 | – | 100 | 100 | 40 | 100 | 20 | 0 | 100 | 50 | 80 | 100 |
